The results in this text go back to PMC9501377, “New Diarylamine KV10.1 Inhibitors and Their Anticancer Potential” (Pharmaceutics, 2022).

A word on the inhibition: it is the change of the read-out against control, counted positive when it falls. The term IC50 denotes the midpoint of a concentration-inhibition curve.

The target of one assay is T1, KV10.1 (Eag1) (Homo sapiens, UniProt O95259).
T1 construct: expressed in transfected cells; host or cells: HEK-293 (stably transfected)
T1 sequence (O95259 1-962 isoform O95259-2): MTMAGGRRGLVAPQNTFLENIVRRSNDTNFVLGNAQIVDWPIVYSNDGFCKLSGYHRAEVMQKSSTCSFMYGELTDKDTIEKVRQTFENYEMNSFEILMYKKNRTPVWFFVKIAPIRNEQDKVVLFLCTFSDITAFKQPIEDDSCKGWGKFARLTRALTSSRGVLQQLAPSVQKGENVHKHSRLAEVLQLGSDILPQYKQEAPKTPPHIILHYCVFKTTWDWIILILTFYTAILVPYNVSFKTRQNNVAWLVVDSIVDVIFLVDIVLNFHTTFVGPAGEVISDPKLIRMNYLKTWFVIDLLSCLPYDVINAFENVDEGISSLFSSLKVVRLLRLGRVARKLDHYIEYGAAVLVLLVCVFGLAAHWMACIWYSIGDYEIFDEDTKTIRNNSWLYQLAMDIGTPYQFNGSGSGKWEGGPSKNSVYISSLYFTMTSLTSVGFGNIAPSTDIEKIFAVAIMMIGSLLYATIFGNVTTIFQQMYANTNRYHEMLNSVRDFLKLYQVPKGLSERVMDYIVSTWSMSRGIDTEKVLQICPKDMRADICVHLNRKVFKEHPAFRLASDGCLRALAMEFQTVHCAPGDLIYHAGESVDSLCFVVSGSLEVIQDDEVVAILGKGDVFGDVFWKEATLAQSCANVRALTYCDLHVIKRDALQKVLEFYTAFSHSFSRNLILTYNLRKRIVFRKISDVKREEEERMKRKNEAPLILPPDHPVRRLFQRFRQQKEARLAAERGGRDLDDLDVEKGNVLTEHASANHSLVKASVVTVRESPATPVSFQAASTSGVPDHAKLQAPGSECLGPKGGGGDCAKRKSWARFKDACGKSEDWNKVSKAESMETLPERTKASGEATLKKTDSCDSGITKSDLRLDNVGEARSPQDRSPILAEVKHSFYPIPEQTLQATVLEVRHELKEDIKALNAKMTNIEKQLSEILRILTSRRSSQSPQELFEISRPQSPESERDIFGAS
In words: Whole-cell patch-clamp on stably transfected HEK-293 cells expressing KV10.1. In kind it is cell-based. The conditions noted are these: 10 μM, HEK-293 cells, patch-clamp, mean ± SEM. Here is the method: For whole-cell patch-clamp measurements, stably transfected HEK-293 cells expressing KV10.1 [26, 27, 28] were grown in DMEM with 10% FCS and 300 µg/mL Zeocin on glass coverslips coated with fibronectin. All experiments were conducted at room temperature under perfusion by gravity with extracellular solution (160 mM NaCl, 2.5 mM KCl, 2 mM CaCl2, 1 mM MgCl2, 10 mM Hepes pH 7.4 with NaOH, 8 mM glucose). Pipettes were made from #1 glass capillaries (WPI) and had 1–3 MΩ resistance. The intracellular solution contained 100 mM KCl, 45 mM N-methyl-D-glucamine, 10 mM 1,2-bis(o-aminophenoxy)ethane-N,N,N′,N′-tetraacetic acid (BAPTA), 10 mM Hepes pH 7.35. Stimulation was applied and data were acquired with an EPC10 Plus amplifier (HEKA Elektronik) controlled with Patch Master software. Compounds were applied with an 8-channel fast solution exchanger (ALA). Compounds were prepared to a stock concentration of 10 mM in DMSO. The control solution contained 0.5% DMSO. Stimuli consisted of 500 ms depolarizations to +40 mV.
All electrophysiological data are presented as means ± SEM of n ≥ 3 independent experiments unless otherwise indicated. Oocyte data were analysed using pClamp Clampfit 10.4 (Molecular Devices, Downingtown, PA, USA) and OriginPro 9 (Originlab, Northampton, MA, USA) or GraphPad Prism 8 software (GraphPad Software, Inc., San Diego, CA, USA). Patch-clamp data analysis was performed using FitMaster (HEKA Electronics), IgorPro (Wavemetrics, Inc., Lake Oswego, OR, USA) and GraphPad Prism 9 (GraphPad Software, Inc., San Diego, CA, USA). The Dunnett test and one-way ANOVA were performed to calculate the significance of the induced inhibition compared to the control (p < 0.05).
Turning to “Methyl 2-((4-(2-hydroxy-3-morpholinopropoxy)phenyl)amino)benzoate [Compound 5e]”, the “% of Kv10.1 Inhibition at 10 μM (HEK-293 Cells)” value is 12.6 ± 6.4%.
For the compound `O=[N+]([O-])c1cc(C(F)(F)F)ccc1Nc1ccc(OCc2ccccc2)cc1` [Compound 14, N-(4-(Benzyloxy)phenyl)-2-nitro-4-(trifluoromethyl)aniline], the “% of Kv10.1 Inhibition at 10 μM (HEK-293 Cells)” value was “inactive”.

The assay is the same for the next values; noted with them: HEK293; 1 μM, HEK-293 cells, patch-clamp, mean ± SEM.
For the compound `CN(C)CCOc1c(Cl)cc(Nc2ccc(C(F)(F)F)cc2[N+](=O)[O-])cc1Cl` [Compound 18c, 3,5-Dichloro-4-(2-(dimethylamino)ethoxy)-N-(2-nitro-4-(trifluoromethyl)phenyl)aniline], the inhibition at 1 µM stood at 28.4 ± 12.1%.
`CCN(CC)CCOc1c(Br)cc(Nc2ccc(C(F)(F)F)cc2[N+](=O)[O-])cc1Br` [Compound 17b, 3,5-Dibromo-4-(2-(diethylamino)ethoxy)-N-(2-nitro-4-(trifluoromethyl)phenyl)aniline]: the inhibition at 1 µM was 38.2 ± 1.4%.
Same read-out and setting: as for `CCN(CC)CCOc1c(Cl)cc(Nc2ccc(C(F)(F)F)cc2[N+](=O)[O-])cc1Cl` [Compound 17c, 3,5-Dichloro-4-(2-(diethylamino)ethoxy)-N-(2-nitro-4-(trifluoromethyl)phenyl)aniline], the figure is 66.5 ± 5.5%.

Still in this assay, the particulars now being: HEK293; 10 μM, HEK-293 cells, patch-clamp, mean ± SEM.
In the case of `O=[N+]([O-])c1cc(C(F)(F)F)ccc1Nc1ccc(OCc2ccccc2)cc1` [Compound 14, N-(4-(Benzyloxy)phenyl)-2-nitro-4-(trifluoromethyl)aniline], the inhibition at 10 µM came to 3.3 ± 1.7%.
As for `O=[N+]([O-])c1cc(C(F)(F)F)ccc1Nc1ccc(OCCN2CCCCCC2)cc1` [Compound 21, N-(4-(2-(Azepan-1-yl)ethoxy)phenyl)-2-nitro-4-(trifluoromethyl)aniline], the inhibition at 10 µM is 71 ± 4.12%.
Still for that read-out and setting: as for `COC(=O)c1cc(C(F)(F)F)ccc1Nc1ccc(OCC(O)CN(C)C)cc1` (centres unmarked) [Compound 6c, Methyl 2-((4-(3-(dimethylamino)-2-hydroxypropoxy)phenyl)amino)-5-(trifluoromethyl)benzoate], the figure is 4.2 ± 5.5%; as for `CN(C)CC(O)COc1ccc(NC(=O)c2ccc(C(F)(F)F)cc2[N+](=O)[O-])cc1` (centres unmarked) [Compound 6b, N-(4-(3-(Dimethylamino)-2-hydroxypropoxy)phenyl)-2-nitro-4-(trifluoromethyl)benzamide], 1.7 ± 6%.
Same read-out and setting: as for `COC(=O)c1ccccc1Oc1ccc(OCC(O)CN2CCOCC2)cc1` (centres unmarked) [Compound 5a, Methyl 2-(4-(2-hydroxy-3-morpholinopropoxy)phenoxy)benzoate], the figure is 4.1 ± 2.6%; as for `CN(C)CC(O)COc1ccc(Nc2ccc([N+](=O)[O-])cc2[N+](=O)[O-])cc1` (centres unmarked) [Compound 6d, 1-(Dimethylamino)-3-(4-((2,4-dinitrophenyl)amino)phenoxy)propan-2-ol], 61.9 ± 9%.
On to `O=C(O)c1ccccc1Nc1ccc(OCC(O)CN2CCOCC2)cc1` (centres unmarked) [Compound 10a, 2-((4-(2-Hydroxy-3-morpholinopropoxy)phenyl)amino)benzoic acid], for which the inhibition at 10 µM is 5.8 ± 5.3%.
In the case of `CN(C)CC(O)COc1ccc(Oc2ccc(C(F)(F)F)cc2[N+](=O)[O-])cc1` (centres unmarked) [Compound 6a, 1-(Dimethylamino)-3-(4-(2-nitro-4-(trifluoromethyl)phenoxy)phenoxy)propan-2-ol], the inhibition at 10 µM was found to be 18.8 ± 4%.
As for `O=[N+]([O-])c1cc(C(F)(F)F)ccc1Nc1ccc(OCCN2CCCC2)cc1` [Compound 19, 2-Nitro-N-(4-(2-(pyrrolidin-1-yl)ethoxy)phenyl)-4-(trifluoromethyl)aniline], the inhibition at 10 µM stood at 68.4 ± 14.8%.
`O=[N+]([O-])c1cc(C(F)(F)F)ccc1Nc1ccc(OCCN2CCCCC2)cc1` [Compound 20, 2-Nitro-N-(4-(2-(piperidin-1-yl)ethoxy)phenyl)-4-(trifluoromethyl)aniline]: the inhibition at 10 µM is 65 ± 6%.
As for `O=C(Nc1ccc(OCC(O)CN2CCOCC2)cc1)c1ccc(C(F)(F)F)cc1[N+](=O)[O-]` (centres unmarked) [Compound 5c, N-(4-(2-Hydroxy-3-morpholinopropoxy)phenyl)-2-nitro-4-(trifluoromethyl)benzamide], the inhibition at 10 µM stood at 7.5 ± 3.5%.
With `O=[N+]([O-])c1cc(C(F)(F)F)ccc1Oc1ccc(OCC(O)CN2CCOCC2)cc1` (centres unmarked) [Compound 5b, 1-Morpholino-3-(4-(2-nitro-4-(trifluoromethyl)phenoxy)phenoxy)propan-2-ol], the inhibition at 10 µM was 2.9 ± 5.3%.
`COC(=O)c1ccccc1Nc1ccc(OCC(O)CN2CCOCC2)cc1` (centres unmarked) [Compound 5d, Methyl 2-((4-(2-hydroxy-3-morpholinopropoxy)phenyl)amino)benzoate]: the inhibition at 10 µM turned out to be 2.7 ± 1.2%.
`CNCC(O)COc1ccc(Nc2ccc(C(F)(F)F)cc2[N+](=O)[O-])cc1` (centres unmarked) [Compound 15, 1-(Methylamino)-3-(4-((2-nitro-4-(trifluoromethyl)phenyl)amino)phenoxy)propan-2-ol]: the inhibition at 10 µM worked out at 66.6 ± 4.3%.
On the same count and under the same terms, with `CN(C)CC(O)COc1ccc(Nc2ccc(C(F)(F)F)cc2C(=O)O)cc1` (centres unmarked) [Compound 10b, 2-((4-(3-(Dimethylamino)-2-hydroxypropoxy)phenyl)amino)-5-(trifluoromethyl)benzoic acid] the figure was -2.1 ± 5.7%.
`O=[N+]([O-])c1cc(C(F)(F)F)ccc1Nc1ccc(OCCN2CCOCC2)cc1` [Compound 13, N-(4-(2-Morpholinoethoxy)phenyl)-2-nitro-4-(trifluoromethyl)aniline]: the inhibition at 10 µM was found to be 62.4 ± 3.9%.
As to `CN(C)CCOc1ccc(Nc2ccc(C(F)(F)F)cc2[N+](=O)[O-])cc1` [Compound 18a, N-(4-(2-(Dimethylamino)ethoxy)phenyl)-2-nitro-4-(trifluoromethyl)aniline], the inhibition at 10 µM was 81.4 ± 5.6%.
As to `O=[N+]([O-])c1ccc(Nc2ccc(OCC(O)CN3CCOCC3)cc2)c([N+](=O)[O-])c1` (centres unmarked) [Compound 5f, 1-(4-((2,4-Dinitrophenyl)amino)phenoxy)-3-morpholinopropan-2-ol], the inhibition at 10 µM amounted to 61.7 ± 9.1%.

Still in this assay, the particulars now being: HEK293; 50 μM, HEK-293 cells, patch-clamp, mean ± SEM.
As for `O=C(Cc1ccc(Cl)c(Cl)c1)NC1CCN(CC(O)COc2ccc(Nc3ccc(C(F)(F)F)cc3[N+](=O)[O-])cc2)CC1` (centres unmarked) [Compound 16d, 2-(3,4-Dichlorophenyl)-N-(1-(2-hydroxy-3-(4-((2-nitro-4-(trifluoromethyl)phenyl)amino)phenoxy)propyl)piperidin-4-yl)acetamide], the inhibition at 50 µM was 21.8 ± 4.4%.

Staying with this assay, now noted: whole-cell patch-clamp, dose–response fit.
In turn, `CN(C)CCOc1ccc(Nc2ccc(C(F)(F)F)cc2[N+](=O)[O-])cc1` [Compound 18a, N-(4-(2-(Dimethylamino)ethoxy)phenyl)-2-nitro-4-(trifluoromethyl)aniline] came in with an IC50 of 892 nM.

The target of a further assay is hERG (Homo sapiens, UniProt Q12809). In words: Whole-cell patch-clamp, hERG inhibition. In kind it is cell-based. Also on record: expressed in transfected cells. The conditions noted are these: dose–response fit.
hERG, sequence (Q12809 whole entry): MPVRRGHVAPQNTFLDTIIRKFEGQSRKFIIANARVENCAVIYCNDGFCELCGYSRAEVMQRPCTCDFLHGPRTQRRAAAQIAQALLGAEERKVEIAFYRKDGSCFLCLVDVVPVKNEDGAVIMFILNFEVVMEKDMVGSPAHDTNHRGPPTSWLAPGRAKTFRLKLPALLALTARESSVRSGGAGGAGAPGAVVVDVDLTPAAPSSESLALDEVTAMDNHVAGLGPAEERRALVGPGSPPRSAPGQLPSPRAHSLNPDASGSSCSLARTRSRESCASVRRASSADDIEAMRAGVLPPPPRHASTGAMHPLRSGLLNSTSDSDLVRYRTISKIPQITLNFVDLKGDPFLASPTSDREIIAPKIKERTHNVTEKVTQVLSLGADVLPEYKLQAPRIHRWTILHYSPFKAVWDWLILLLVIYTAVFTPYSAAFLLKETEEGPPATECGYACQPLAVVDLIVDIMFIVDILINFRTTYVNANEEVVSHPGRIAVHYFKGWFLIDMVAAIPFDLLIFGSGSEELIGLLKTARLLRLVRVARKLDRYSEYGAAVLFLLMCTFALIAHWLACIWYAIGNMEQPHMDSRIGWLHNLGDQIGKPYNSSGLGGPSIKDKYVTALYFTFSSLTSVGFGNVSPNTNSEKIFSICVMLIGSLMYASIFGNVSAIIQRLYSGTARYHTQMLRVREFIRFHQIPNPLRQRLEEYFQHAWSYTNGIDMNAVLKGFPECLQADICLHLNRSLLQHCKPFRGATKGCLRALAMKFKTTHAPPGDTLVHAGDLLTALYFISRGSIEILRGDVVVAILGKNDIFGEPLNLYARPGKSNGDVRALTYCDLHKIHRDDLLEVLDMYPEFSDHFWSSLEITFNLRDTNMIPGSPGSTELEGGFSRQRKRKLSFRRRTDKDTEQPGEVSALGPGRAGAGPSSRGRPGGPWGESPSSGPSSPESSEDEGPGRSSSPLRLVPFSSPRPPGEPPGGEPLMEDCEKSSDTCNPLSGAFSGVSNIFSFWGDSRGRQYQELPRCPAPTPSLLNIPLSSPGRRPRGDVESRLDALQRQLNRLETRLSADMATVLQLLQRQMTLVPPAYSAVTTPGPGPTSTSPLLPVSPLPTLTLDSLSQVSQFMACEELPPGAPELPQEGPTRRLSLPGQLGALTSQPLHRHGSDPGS
In turn, `CN(C)CCOc1ccc(Nc2ccc(C(F)(F)F)cc2[N+](=O)[O-])cc1` [Compound 18a, N-(4-(2-(Dimethylamino)ethoxy)phenyl)-2-nitro-4-(trifluoromethyl)aniline] displayed an IC50 of 177 nM.
